This note sets out measurements from patent US20230183310A1, “Polypeptide Compounds and Use Thereof in the Prevention or Treatment of Diabetes or Diabetic Complications” (Shenzhen Turier Biotech Co., Ltd., priority 2020, published 2023).

*1 amine or outer side, *2 acyl side, *3 side chain or, on linkers, in order; H or OH if unused. Primed or numbered codes have the meaning given here. Where no end group is shown, it is not given here. Side-chain parts run from the residue outwards. [ ]: non-standard residue; d: D form. The star is where a group is joined. C20 diacid = O=C(O)CCCCCCCCCCCCCCCCCCC(=O)*; γGlu = O=C(O)[C@H](CCC(=O)[*:2])N[*:1]; Iva = CC[C@](C)(N)C(=O)O; PEG2′ = not defined here; Aib = CC(C)(N)C(=O)O

One assay deals with C57BL/6J mice. The assay is described as follows: Oral glucose tolerance (OGTT), repeated glucose loads followed to 24 h after one s.c. dose. In kind it is in vivo. Conditions: four OGTT curves (0-22 h); 100 μg/kg subcutaneously. The method, then: Eight-week-old male C57BL/6J mice (Model Animal Research Center, Nanjing University) were randomly grouped according to similar blood glucose (assessed by blood samples obtained from the tail tip), with six mice in each group. […] The initial blood samples (fasted blood glucose levels) were obtained after about 4 h. Subsequently, an oral dose of glucose (2 g/kg) was administered and the animals were placed back in their holding cages (t=0). […] The oral dose of glucose was then repeated at 8 h of administration, 12 h of administration and […], and blood glucose changes were detected and followed until 24 hours. The data were processed using the software GraphPadPrism to make a line graph of blood glucose changes, and the area under the curve was calculated to obtain an AUC graph, and the results are shown in FIG. 1.

In the next assay the test system is FN protein (fibronectin). In words: Western blot of FN protein in high glucose-induced in vitro renal fibrosis cell model. The assay is classed as cell-based, rat. The following applies: 10 μM; 30 mmol/L glucose; 48 h; mesangial and renal epithelial cells. From the text:
Hyperglycemia and increased production of glycosylation end products will cause morphological changes such as proliferation and hypertrophy of glomerular mesangial cells, increase in extracellular matrix (ECM) and mesangial expansion, which will eventually lead to the loss of its physiological function. […] Therefore, this example used high glucose to induce MCS mesangial cells and NRK renal epithelial cells to construct an in vitro renal fibrosis cell model for screening medicaments useful for the treatment of diabetic nephropathy. The renal mesangial cell strain GMC and glomerular epithelial cells mTEC used in this example were both cells kept in the applicant's laboratory (both were extracted from rat renal primary cells) and cultured in low sugar medium containing 10% fetal bovine serum. The cells were starved with serum-free culture medium for 24 h when grew to 70% confluence. The cells were divided into the following 9 groups by adjusting the glucose concentration as follows: […]

For assay [1], the system named is db/db diabetic mice. In words: Dose determination in 8-week-old db/db diabetic mice: blood glucose and body weight. In kind it is in vivo. The following applies: for body weight (weight-lowering effect) / blood glucose (glucose-lowering effect) / weight-lowering effect relative to compounds 3 and 8: FIG. 3A, daily s.c.; for overall hypoglycemic effect / blood glucose (hypoglycemic effect) / subsequent blood glucose course (long-lasting effect) / effect relative to polypeptide compounds 3 and 8: FIG. 3B, every other day s.c.; for subsequent blood glucose course (long-lasting effect): from day 3 / after days 3-5. The method, then: The db/db mice diabetic model (purchased from Nanjing University-Nanjing Institute of Biomedical Research, about 8 weeks, and blood glucose and body weight were measured to ensure the smooth subsequent experiments) was obtained, and the model mice were randomly divided into 12 groups (including polypeptide compounds 3, 8, 13, 15, semaglutide and physiological saline groups), with 6 mice in each group and no difference in basal body weight and blood glucose. Each group was injected subcutaneously with compound 3 (80 and 120 μg/kg, 2 groups), compound 8 (80 and 120 μg/kg, 2 groups), compound 13 (80 and 120 μg/kg, 2 groups), compound 15 (80 and 120 μg/kg, 2 groups), semaglutide (80 and 120 μg/kg, 2 groups) and physiological saline (DN group: normal mice born in the same litter; DC group: db/db mice control group) every day or every other day.
Blood glucose and body weight of mice were measured after daily administration and 6 h fasting on alternate days.

The test system of assay [2] is db/db diabetic mice. In words: Treatment of 12-week-old db/db diabetic mice: blood glucose, OGTT, ITT, ALT/AST, diabetic nephropathy indices. The following applies: for weekly blood glucose (hypoglycemic effect): FIG. 4A, blood glucose at normal levels at week 1; for weekly blood glucose (hypoglycemic effect) / improving oral glucose tolerance (OGTT) / improving insulin resistance (ITT) / ALT and AST in serum (hepatoprotective function): 120 μg/kg s.c. daily; for improving oral glucose tolerance (OGTT): FIG. 4B, week 4; for improving insulin resistance (ITT): FIG. 4C, week 5; for ALT and AST in serum (hepatoprotective function): FIG. 4D; for H&E staining of kidneys: glomerular adhesion, ameliorative and therapeutic effects: FIG. 5B; for H&E staining of kidneys: glomerular adhesion, ameliorative and therapeutic effects / PAS staining of kidneys: ameliorative effects on glomerular mesangial region / collagen content (Sirius red, FN and α-SMA staining of kidneys): after 8 weeks; for H&E staining of kidneys: glomerular adhesion, ameliorative and therapeutic effects / collagen content (Sirius red, FN and α-SMA staining of kidneys): compared to semaglutide, SAR425899 and MED C18-acid groups; for PAS staining of kidneys: ameliorative effects on glomerular mesangial region: FIG. 5C; for collagen content (Sirius red, FN and α-SMA staining of kidneys): FIGS. 5D to 5F. In kind it is in vivo. The method, then:
Normal mice born in the same litter; DC group: db/db mice control group). Blood glucose and body weight were measured on alternate days after daily administration of the medicament, and water intake and food intake were measured once a week. OGTT was measured at week 4, insulin tolerance (ITT) was measured at week 5, metabolism of mice was examined using mouse metabolic cages at weeks 6-7, and various serological and pathological indices were taken at week 8.
Type 2-diabetes mice were characterized by obesity, insulin resistance, hyperglycemia, dyslipidemia and hepatic fat vacuole-like degeneration.
After 6 weeks of medical treatment, the mice was collected for urine using metabolic cages, and the protein content in the urine was detected using relevant kits. After 7 weeks of medical treatment, the material was taken and blood was used to detect serological indicators such as blood creatinine and urea nitrogen.

In the case of “His-Aib-Gln-Gly-Thr-Phe-Thr-Ser-Asp-Lys(PEG2-PEG2-γGlu-CO(CH2)18CO2H)-Ser-Lys-Tyr-Leu-Asp-Glu-Arg-Ala-Ala-Gln-Asp-Phe-Iva-Gln-Trp-Leu-Leu-Asp-Gly-Gly-Pro-Ser-Ser-Gly-Aib-Pro-Pro-Pro-Ser-NH2 (H[Aib]QGTFTSDK([PEG2′-PEG2′-γGlu-C20 diacid])SKYLDERAAQDF[Iva]QWLLDGGPSSG[Aib]PPPS-NH2) [Compound 8]”, the “long-acting hypoglycemic effects compared to semaglutide” value with C57BL/6J mice was “superior and significant long-acting hypoglycemic effects”. Further, the “FN protein expression (Western blot)” value in the assay on FN protein (fibronectin) is reported as “inhibited FN expression more significantly”. Besides, in the assay on db/db diabetic mice [1], the “body weight (weight-lowering effect)” value is recorded as “better weight-lowering effect” and the overall hypoglycemic effect entry is reported as “more excellent hypoglycemic effect”. In the assay on db/db diabetic mice [1] (80 μg/kg), the “blood glucose (glucose-lowering effect)” value is “significant glucose-lowering effect”; the “blood glucose (hypoglycemic effect)” value is “first decrease and then increase, and the overall hypoglycemic effect was significant”. The “blood glucose (glucose-lowering effect)” value in the assay with db/db diabetic mice [1] (120 μg/kg, vs saline DC group) was “good glucose-lowering effect in 3-5 days”. Also, in the assay with db/db diabetic mice [1] (120 μg/kg), the “blood glucose (hypoglycemic effect)” value is on record as “good hypoglycemic effect on days 3-5” and the “subsequent blood glucose course (long-lasting effect)” value (“subsequent blood glucose course” for short) is on record as “the blood glucose did not change much”. Besides, in the assay on db/db diabetic mice [2], the “weekly blood glucose (hypoglycemic effect)” value (“weekly blood glucose” below) is reported as “significant hypoglycemic effects”; the “improving oral glucose tolerance (OGTT)” value is “performed more excellent”; the “improving insulin resistance (ITT)” value was “performed more excellent”; the “ALT and AST in serum (hepatoprotective function)” value (“ALT and AST in serum” below) is recorded as “more excellent hepatoprotective functions”. For the same substance, in the assay with db/db diabetic mice [2], the “H&E staining of kidneys: glomerular adhesion, ameliorative and therapeutic effects” value (“H&E staining of kidneys” below) was “more significant”; the “PAS staining of kidneys: ameliorative effects on glomerular mesangial region” value (“PAS staining of kidneys” for short) is on record as “more significant”; the “collagen content (Sirius red, FN and α-SMA staining of kidneys)” value (from here on “collagen content”) was “improved more significantly”.
On to “His-(D-Ser)-Gln-Gly-Thr-Phe-Thr-Ser-Asp-Lys(Gly-Gly-Ser-Gly-Ser-Gly-γGlu-CO(CH2)18-COOH)-Ser-Lys-Tyr-Leu-Glu-Aib-Lys-Ala-Ala-Gln-Asp-Phe-Val-Glu-Trp-Leu-Lys-Ala-Gly-Gly-Pro-Ser-Ser-Gly-Ala-Pro-Pro-Pro-Ser (H[dS]QGTFTSDKSKYLE[Aib]KAAQDFVEWLKAGGPSSGAPPPS; not fully specified (residue 10, C-terminus)) [Compound 13]”, for which the “long-acting hypoglycemic effects compared to semaglutide” value in the assay on C57BL/6J mice is “superior and significant long-acting hypoglycemic effects”. Moreover, the “FN protein expression (Western blot)” value with FN protein (fibronectin) was “inhibited FN expression more significantly”. Also, in the assay with db/db diabetic mice [1], the “body weight (weight-lowering effect)” value was “better weight-lowering effect”; the “weight-lowering effect relative to compounds 3 and 8” value was “superior to that of compounds 3 and 8”; the “effect relative to polypeptide compounds 3 and 8” value is “better than that of polypeptide compounds 3 and 8”; the overall hypoglycemic effect result is reported as “more excellent hypoglycemic effect”. Besides, in the assay with db/db diabetic mice [1] (80 μg/kg), the “blood glucose (glucose-lowering effect)” value is “significant glucose-lowering effect with long-lasting effect”; the “blood glucose (hypoglycemic effect)” value is “significant hypoglycemic effect on day 3, but the subsequent blood glucose level did not change much and tended to be stable”. Besides, the “blood glucose (glucose-lowering effect)” value in the assay with db/db diabetic mice [1] (120 μg/kg, vs saline DC group) is “good glucose-lowering effect in 3-5 days”. Further, in the assay on db/db diabetic mice [1] (120 μg/kg), the “blood glucose (hypoglycemic effect)” value was “good hypoglycemic effect on days 3-5” and the “subsequent blood glucose course” value was “kept good hypoglycemic effect”. In addition, in the assay on db/db diabetic mice [2], the “weekly blood glucose” value is “significant hypoglycemic effects”; the “improving oral glucose tolerance (OGTT)” value was “performed more excellent”; the “improving insulin resistance (ITT)” value is listed as “performed more excellent”; the “ALT and AST in serum” value was “more excellent hepatoprotective functions”. For the same substance, in the assay on db/db diabetic mice [2], the “H&E staining of kidneys” value is “more significant”; the “PAS staining of kidneys” value is given as “more significant”; the “collagen content” value was “improved more significantly”.
Turning to “His-Aib-Gln-Gly-Thr-Phe-Thr-Ser-Asp-Lys(Gly-Gly-Ser-Gly-Ser-Gly-γGlu-CO(CH2)18-COOH)-Ser-Lys-Tyr-Leu-Asp-Glu-Arg-Ala-Ala-Gln-Asp-Phe-Iva-Gln-Trp-Leu-Leu-Asp-Gly-Gly-Pro-Ser-Ser-Gly-Aib-Pro-Pro-Pro-Ser (H[Aib]QGTFTSDKSKYLDERAAQDF[Iva]QWLLDGGPSSG[Aib]PPPS; not fully specified (residue 10, C-terminus)) [Compound 15]”, in the assay with C57BL/6J mice, the “long-acting hypoglycemic effects compared to semaglutide” value was “superior and significant long-acting hypoglycemic effects”. For the same substance, in the assay with FN protein (fibronectin), the “FN protein expression (Western blot)” value was “inhibited FN expression more significantly”. For the same substance, in the assay with db/db diabetic mice [1], the “body weight (weight-lowering effect)” value is reported as “better weight-lowering effect”; the “weight-lowering effect relative to compounds 3 and 8” value is “superior to that of compounds 3 and 8”; the “effect relative to polypeptide compounds 3 and 8” value is “better than that of polypeptide compounds 3 and 8”; the overall hypoglycemic effect result was “more excellent hypoglycemic effect”. Further, in the assay on db/db diabetic mice [1] (80 μg/kg), the “blood glucose (glucose-lowering effect)” value is on record as “significant glucose-lowering effect with long-lasting effect”; the “blood glucose (hypoglycemic effect)” value was “significant hypoglycemic effect on day 3, but the subsequent blood glucose level did not change much and tended to be stable”. Further, the “blood glucose (glucose-lowering effect)” value in the assay on db/db diabetic mice [1] (120 μg/kg, vs saline DC group) is on record as “good glucose-lowering effect in 3-5 days”. Moreover, in the assay with db/db diabetic mice [1] (120 μg/kg), the “blood glucose (hypoglycemic effect)” value was “good hypoglycemic effect on days 3-5” and the “subsequent blood glucose course” value is listed as “kept good hypoglycemic effect”. For the same substance, in the assay with db/db diabetic mice [2], the “weekly blood glucose” value is on record as “significant hypoglycemic effects”; the “improving oral glucose tolerance (OGTT)” value was “performed more excellent”; the “improving insulin resistance (ITT)” value is “performed more excellent”; the “ALT and AST in serum” value is “more excellent hepatoprotective functions”. In addition, in the assay with db/db diabetic mice [2], the “H&E staining of kidneys” value is recorded as “more significant”; the “PAS staining of kidneys” value was “more significant”; the “collagen content” value is “improved more significantly”.
